The series is described as follows: solvent given as SMILES.

The structures appear in SMILES notation.

In the case of `CCCCN1C(=O)c2cccc3c([O-])c(/C=C/c4sc5ccccc5[n+]4CC)cc(c23)C1=O`, the absorption maximum (in C1CCOC1) turned out to be 586.75 nm; the absorption maximum (in CC#N) worked out at 564.61 nm; the absorption maximum (in CC(C)=O) was 572.49 nm; the absorption maximum (in CCO) is 555.68 nm; the absorption maximum (in CO) is recorded as 545.83 nm; the absorption maximum (in CS(C)=O) is 566.81 nm. The absorption maximum came to 607.26 nm (in Cc1ccccc1), 589.53 nm (in ClC(Cl)Cl), 584.78 nm (in ClCCl) and 489.49 nm (in O).

As for `CCCCCCCCCCCCCCCCOC(=O)c1ccc(N(c2ccccc2)c2ccccc2)cc1`, the absorption maximum runs as follows: (in C1CCCCC1) 334 nm; (in C1CCOC1) 334 nm; (in CC#N) 332 nm; (in CCOC(C)=O) 334 nm; (in ClCCCl) 336 nm; (in c1ccccc1) 334 nm.

In the case of `C(=C\c1c2ccccc2cc2ccccc12)/c1ccc2ccccc2n1`, the absorption maximum is, setting by setting: (in CC1CCCCC1) 390 nm; (in CC#N) 390 nm.

In the case of `COc1ccc(-c2cccc3ncc(-c4ccccc4)n23)cc1`, under “in ClCCl”, the absorption maximum is given as 332 nm.

Turning to `CC1(C)c2ccccc2N(c2cc[n+]3c(c2)-c2ccccc2O[B-]3(F)F)c2ccccc21`, the absorption maximum (in Cc1ccccc1) amounted to 358 nm.

Regarding `FC(F)(F)c1ccc(-c2ncc3ccccn23)cc1`, where the note is “in ClC(Cl)Cl”, the absorption maximum was 340 nm.

Take `CCCCCCCCCCn1cc(C2=C(c3cn(CCCCCCCCCC)c4ccccc34)C(=O)N(C)C2=O)c2ccccc21`: the absorption maximum by setting is: (in C1CCCCC1) 462 nm; (in C1CCOC1) 471 nm; (in CC#N) 470 nm; (in CC(C)OC(C)C) 470 nm; (in CCCCOCCCC) 469 nm; (in CCO) 480 nm. Besides, the absorption maximum by setting is: (in CCOC(C)=O) 472 nm; (in CN(C)C=O) 474 nm; (in Cc1ccccc1) 472 nm; (in ClCCl) 477 nm.

With `Cc1cc2ccccc2c2c1c1ccccc1n2-c1ccc(N(c2ccccc2)c2ccccc2)cc1`, under “in ClCCl”, the absorption maximum worked out at 304 nm.

The compound `CCCCCCn1c(=O)c2c3nc4cc5sc6c(nc5cc4sc3c3c(=O)n(CCCCCC)c(=O)c3c2c1=O)c1c(=O)n(CCCCCC)c(=O)c1c1c(=O)n(CCCCCC)c(=O)c61` showed an absorption maximum (in ClCCl) of 633 nm.

`FC(F)(F)C(F)(F)C(F)(F)c1nc2c(-c3ccsc3)cc3c4cc(-c5ccsc5)c5nc(C(F)(F)C(F)(F)C(F)(F)F)nc6c(-c7ccsc7)cc(c7cc(-c8ccsc8)c(n1)c2c37)c4c56`: under “in C1CCOC1”, the absorption maximum was 538 nm.

As to `COc1ccc(C2=CC(c3ccccc3)=C(c3ccccc3)C2)c2ccccc12`, under “in ClCCl”, the absorption maximum was found to be 354 nm.

In the case of `O=C1C=C(Nc2ccc(F)cc2F)C(=O)c2ccccc21`, the absorption maximum stood at 439 nm (in CCCCCC) and 443 nm (in CO).

The compound `CCCCCCCCCCCCCCCC[n+]1ccc(/C=C/c2ccccc2O)cc1` had an absorption maximum (in C1COCCO1) of 558.2 nm; an absorption maximum (in CC(C)=O) of 547 nm; an absorption maximum (in CC(C)O) of 520.4 nm; an absorption maximum (in CCCCCC) of 530.1 nm; an absorption maximum (in CCCCO) of 523.4 nm; an absorption maximum (in CCCO) of 518.9 nm. Besides, the absorption maximum reads like this: (in CCO) 518.9 nm; (in CN(C)C=O) 549.1 nm; (in CO) 503.8 nm; (in CS(C)=O) 523.4 nm; (in Cc1ccccc1) 554.2 nm; (in ClC(Cl)(Cl)Cl) 548.4 nm. The compound also returned an absorption maximum (in ClC(Cl)Cl) of 554.2 nm, an absorption maximum (in ClCCl) of 553.8 nm and an absorption maximum (in c1ccccc1) of 553.7 nm.

Regarding `CCCCn1c2ccccc2c2ccc3c4cc(-c5ccccc5)ccc4n(CCCC)c3c21`, for the setting “in ClC(Cl)Cl”, the absorption maximum is listed as 330 nm.

As for `COc1ccc(-c2csc(/C(C#N)=N\Nc3ccc(C#N)cc3)n2)cc1`, the absorption maximum by setting is: (in CC#N) 401 nm; (in CCO) 403 nm; (in CN(C)C=O) 481 nm; (in Cc1ccccc1) 405 nm; (in ClCCl) 404 nm.

`CCCCCCc1sc(CCCCCC)c2c3ccsc3c3sccc3c12` displayed an absorption maximum (in ClC(Cl)Cl) of 383 nm.

With `N#Cc1ccc(C#Cc2ccc(C#Cc3ccccc3C#N)cc2C#N)cc1`, the absorption maximum (in ClC(Cl)Cl) was 340 nm.

Consider `COc1cccc(-n2c(-c3ccc(F)cc3)nc(C)c2C)c1`, for which the absorption maximum is, setting by setting: (in CCCCCC) 284 nm; (in CCCCO) 289 nm; (in CCO) 290 nm; (in CCOC(C)=O) 288 nm; (in ClCCl) 284 nm.

Consider `Cc1cc(C)c(C2=C3C=c4c(c5ccccc5c5ccccc45)=[N+]3[B-](F)(F)n3c2cc2c4ccccc4c4ccccc4c23)c(C)c1`, for which the absorption maximum reads like this: (in C1CCCCC1) 674 nm; (in C1CCOC1) 673 nm; (in CC#N) 666 nm; (in Cc1ccccc1) 680 nm; (in ClCCl) 673 nm.

`COc1ccc(-c2cnc(-c3cccnc3)o2)cc1OC` returned an absorption maximum (in ClCCl) of 330 nm.

As for `c1ccc(-c2ccc(-c3nc(-c4ccccc4)c(N(c4ccccc4)c4ccccc4)[se]3)cc2)cc1`, the absorption maximum (in ClC(Cl)Cl) is 394 nm.

In the case of `CC1(C)C2=[N+](CCCCCC(=O)NCNC(=O)CCCCCN3/C(=C/C=C/C=C/C=C/2)C(C)(C)c2cc(S(=O)(=O)[O-])ccc23)c2ccc(S(=O)(=O)[O-])cc21`, the absorption maximum (in CO) was 754 nm.

Regarding `COc1ccc2cc(-c3ccc(C)cc3)c(=O)oc2c1`, the absorption maximum is reported as 342 nm (in C1CCOC1), 338 nm (in CCCCCC), 342 nm (in CCO) and 345 nm (in CS(C)=O).

As to `O=C1C2=C3c4sccc4C=CN3C(=O)C2=C2c3sccc3C=CN12`, the absorption maximum is listed as 605 nm (in CN(C)C=O) and 605 nm (in ClC(Cl)Cl).

For the compound `CCCCN1C(=O)c2cc(Br)c3c4c(Br)c(Br)c5c6c(cc(Br)c(c7c(Br)c(Br)c(c2c37)C1=O)c64)C(=O)N(CCCC)C5=O`, the absorption maximum (in ClC(Cl)Cl) worked out at 534 nm.

Turning to `Cc1ccc(-c2sc(/C(C#N)=C/c3ccc(C#N)cc3)nc2-c2ccc(Cl)cc2)cc1`, the absorption maximum (in CC#N) came to 383 nm.

For `CN(C)c1ccc(/C=C/c2cc(/C=C/c3ccc(N(C)C)cc3)nc(N)n2)cc1`, the absorption maximum amounted to 414 nm (in Cc1ccccc1) and 426 nm (in ClC(Cl)Cl).

In turn, `CCCC1=CC2=C(c3c(C)cc(C)cc3C)c3cc(CCC)c(-c4ccc5ccc6cccc7ccc4c5c67)n3[B-](F)(F)[N+]2=C1c1ccc2ccc3cccc4ccc1c2c34` registered an absorption maximum (in ClC(Cl)Cl) of 562 nm.

`Cc1cccc(C)c1N1C(c2ccccc2)=Cc2ccc3ccccc3[n+]2[B-]1(F)F` yielded an absorption maximum (in ClCCl) of 447 nm.

The compound `Cc1cc(C)c2cc3cc(C)ncc3cc2c1` displayed an absorption maximum (in CCO) of 386.1 nm.

For the compound `Cc1nc2ccc(/C=C/c3ccc(N(C)C)cc3)cc2nc1-c1ccccc1`, the absorption maximum reads like this: (in C1COCCO1) 403 nm; (in CC#N) 400 nm; (in ClCCl) 408 nm.

`Fc1cc(F)c2cc3cccc[n+]3cc2c1`: the absorption maximum (in O) is 407 nm.

The compound `O=P1(c2ccccc2)C(c2ccccc2)=Cc2cc3ccccc3cc21` (stereo not drawn) displayed an absorption maximum (in ClCCl) of 387 nm.

Under “in CCO”, `CCN(CC)c1cc(F)c(C(=O)c2cc(F)c(F)cc2F)cc1F` came in with an absorption maximum of 361 nm.

Compound `CC(C)(C)c1ccc2oc3nc4oc5cc(-n6c7ccccc7c7ccccc76)ccc5c4cc3c2c1` gave an absorption maximum (in ClC(Cl)Cl) of 347 nm.

`Cc1cc(C)c(C2=C3C=CC=[N+]3[B-]3(c4ccccc4)Oc4cc(O)cc5c6ccc(C)cc6c6cc2n3c6c45)c(C)c1` (stereo not drawn) registered an absorption maximum (in ClC(Cl)Cl) of 643 nm.

`COc1ccc(/C=C/c2nc(-c3ccc([N+](=O)[O-])cc3)[nH]c2/C=C/c2ccc(OC)cc2)cc1` registered an absorption maximum (in ClCCl) of 455 nm.

On to `O=C(O)CCCCCn1c2ccc(Br)cc2c(=O)c2cc3c(cc21)c(=O)c1cc(Br)ccc1n3CCCCCC(=O)O`, for which the absorption maximum (in CO) was determined as 533 nm.

Compound `CCOC(=O)COc1ccc(/C=C/C2=C3C(C)=CC(C)=[N+]3[B-](F)(F)n3c2c2ccccc2c3-c2[nH]c(C)cc2C)cc1` returned an absorption maximum (in ClCCl) of 608 nm.

Consider `COC(=O)c1ccc2c3ccc(C(=O)OC)c4c(C(=O)OC)ccc(c5ccc(C(=O)OC)c1c25)c43`, for which the absorption maximum stood at 470 nm (in C1COCCO1); 465 nm (in CC#N); 465 nm (in CC(C)=O); 476 nm (in CC(C)O); 476 nm (in CCCCO); 468 nm (in CN(C)C=O). Further, the absorption maximum is on record as 465 nm (in CO) and 469 nm (in ClC(Cl)Cl).

As to `Cc1cc(-n2c3ccccc3c3cc4c(cc32)C2c3ccccc3C4c3ccccc32)ccc1-c1nc(-c2ccccc2)nc(-c2ccccc2)n1`, where the note is “in Cc1ccccc1”, the absorption maximum came to 367 nm.

Compound `C(#Cc1ccccc1)C(C#Cc1ccccc1)=Cc1ccccc1` yielded an absorption maximum (in ClC(Cl)Cl) of 340 nm.

Compound `CC(C)[Si](C#Cc1c2nc3c(nc2c(C#C[Si](C(C)C)(C(C)C)C(C)C)c2nc4c(nc12)C1c2ccccc2C4c2ccccc21)C1c2ccccc2C3c2ccccc21)(C(C)C)C(C)C` had an absorption maximum (in CCCCCC) of 450 nm.

Take `O=c1oc2ccccc2cc1/C=C/c1ccccc1`: the absorption maximum (in CC#N) turned out to be 351 nm.

Compound `CC1=c2cc3c(C)c4n(c3cc2=[N+]2C1=Cc1c3ccccc3c(C)n1[B-]2(F)F)[B-](F)(F)[N+]1=C(C)c2ccccc2C1=C4` came in with an absorption maximum (in ClC(Cl)Cl) of 775 nm.

Regarding `CCCCOc1c(C#N)cc2cc(C#N)c(OCCCC)c3c4c(OCCCC)c(C#N)cc5cc(C#N)c(OCCCC)c(c1c23)c54`, the absorption maximum (in ClCCl) is recorded as 454 nm.

In turn, `COc1cc(C(=O)c2c(C)c3ccc4cccc5c6cccc7ccc2c(c76)c3c45)cc(OC)c1OC` showed an absorption maximum (in ClCCl) of 391 nm.

`C1=Cc2ccc(N(c3ccccc3)c3ccccc3)cc2C2(c3cc(N(c4ccccc4)c4ccccc4)ccc31)c1ccccc1-c1ccccc12` displayed an absorption maximum (in ClCCl) of 406 nm.
